{"source": "patent US5756355A", "about": "“Lipid membrane sensors” (Ecole Polytechnique Federale de Lausanne, priority 1992, dated 1998)", "key": {"[1]": {"experiment": "Current responses of the lipid bilayer without receptor (pure lipid layer)", "details": "for Icap current response / Ifarad current response: pure lipid layer without receptor; for alterations of the electrical properties of the lipid layer without receptor: same concentration range as with receptor", "experimental": "For comparison, a corresponding lipid bilayer without the receptor protein was formed by completing the imperfect thiolipid monolayer on the gold electrode with the corresponding pure phospholipid/detergent solution.\nThe same experiment was performed using a lipid layer without receptor.\nThe same experiment was performed using the lipid bilayer without receptor.\nA large (geometrical area about 1 cm^2) AgCl-coated Ag wire served as the counter/reference electrode and was fixed at a defined distance from the working electrode. […] The real and imaginary parts of the impedance were obtained from the currents in phase (faradaic component Ifarad) and 90° out of phase (capacitive component Icap) with the applied voltage, respectively. These currents were measured on a 1 k.OMEGA. resistor in series with the electrodes.\n(§1) The impedance and capacitance of the membrane layers on the gold electrodes were determined from the two current components, Ifarad and Icap, using a simplified model for the electrical behaviour of the membrane with the membrane resistance R=Uo /Ifarad in parallel to the membrane capacitance C=Icap /(2πvUo)."}, "[2]": {"molecular_target": "T1, 5-HT3 receptor (Bos taurus, UniProt F1N4Y2)", "T1 construct": "from tissue; host or cells: calf brain, entorhinal cortex and hippocampus; detergent (OPG) solubilised and purified on 5-HT-agarose", "T1 sequence (F1N4Y2 29-488)": "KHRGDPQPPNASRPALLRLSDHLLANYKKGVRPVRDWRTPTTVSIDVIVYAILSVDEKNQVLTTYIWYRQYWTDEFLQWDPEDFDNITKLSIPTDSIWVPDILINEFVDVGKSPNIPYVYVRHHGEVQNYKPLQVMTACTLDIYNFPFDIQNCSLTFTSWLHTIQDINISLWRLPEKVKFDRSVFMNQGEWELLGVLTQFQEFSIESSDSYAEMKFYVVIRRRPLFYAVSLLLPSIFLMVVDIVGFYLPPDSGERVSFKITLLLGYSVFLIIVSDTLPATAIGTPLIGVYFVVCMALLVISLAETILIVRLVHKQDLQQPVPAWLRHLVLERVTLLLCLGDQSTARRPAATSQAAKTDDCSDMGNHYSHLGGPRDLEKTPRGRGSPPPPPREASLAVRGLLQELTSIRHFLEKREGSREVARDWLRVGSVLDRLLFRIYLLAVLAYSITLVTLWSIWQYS", "experiment": "Current responses of gold-supported lipid bilayer sensor with incorporated 5-HT3 receptor during stimulation by agonists, without or with antagonist", "type": "biochemical, calf", "experimental": "A 1 mm^2 gold electrode was cleaned and inserted into the electrochemical cell as described in Example 5. First, 100 μl of the thiolipid/OPG solution (0.7 mM/48 mM in 0.1 M KCl) was added and the adsorption process followed as described in Example 6. After approximately 2 minutes, the solution was completely replaced. The sample was washed several times with 55 mM OGP in 0.1 M KCl.\nA receptor-containing solution was prepared as follows: 2 mg (2.9 μmol) of DMPC, 2 mg (2.6 μmol) of POPC (i.e. an approximately 1:1 molar ratio of DMPC: POPC) and 2 mg ([…]) of OPG were ultrasonicated in 1 ml of 0.1 M KCl, until the solution became clear. This solution was mixed with 15 μg of the 5-HT3 receptor (1 mg/ml, in 40 mM OPG and complex buffer \"A\" as used in Example 4), 100 μl of the receptor-containing solution was placed in the cell. After about 2 minutes, the cell solution was diluted stepwise by the addition of small portions of 0.1 M KCl. Finally, the solution was completely replaced by 0.1 M KCl. The resulting layer was used for experiments within 5 hours at most, then being removed by washing with 55 mM OGP in 0.1 M KCl and formed again using the ice-cooled receptor solution.\n50 μl portions of 5-HT solution \"B\" (20 μM 5-HT in 0.1 M KCl) were added successively to the layer with the incorporated receptor (still connected to the cell containing 500 μl of 0.1 M KCl). An interval of about 50 seconds was left between additions (the capacitive and the faradaic current reaching a constant value).\nThe construction of the receptor-containing system was performed as described above. Again, 500 μl of 0.1 M KCl was placed in the measurement cell but for stimulation, a solution \"C\" of 20 μM 1-phenylbiguanide, another agonist, in 0.1 M KCl was used.\nThe supported lipid bilayer, containing the 5-HT3 receptor, was formed as described in (ii). […] After each addition, the values of the capacitive and the faradaic currents were allowed to stabilize.\nA large (geometrical area about 1 cm^2) AgCl-coated Ag wire served as the counter/reference electrode and was fixed at a defined distance from the working electrode. The impedance measurements were made using a two-channel lock-in amplifier (EG&G model 5206) at v=120 Hz, applying Uo =17.5 mV RMS to the electrochemical cell. The real and imaginary parts of the impedance were obtained from the currents in phase (faradaic component Ifarad) and 90° out of phase (capacitive component Icap) with the applied voltage, respectively. These currents were measured on a 1 k.OMEGA. resistor in series with the electrodes.\nas §1"}, "[3]": {"details": "phenylbiguanide 1.82 μM, Experiment 1"}, "[4]": {"details": "phenylbiguanide 1.82 μM, Experiment 2"}, "[5]": {"details": "phenylbiguanide 3.33 μM, Experiment 1"}, "[6]": {"details": "phenylbiguanide 3.33 μM, Experiment 2"}, "[7]": {"details": "phenylbiguanide 4.62 μM, Experiment 1"}, "[8]": {"details": "phenylbiguanide 4.62 μM, Experiment 2"}, "[9]": {"details": "phenylbiguanide 5.71 μM, Experiment 1"}, "[10]": {"details": "phenylbiguanide 5.71 μM, Experiment 2"}, "[11]": {"details": "phenylbiguanide 6.67 μM, Experiment 1"}, "[12]": {"details": "phenylbiguanide 6.67 μM, Experiment 2"}, "[13]": {"details": "phenylbiguanide 7.50 μM, Experiment 1"}, "[14]": {"details": "phenylbiguanide 7.50 μM, Experiment 2"}, "[15]": {"details": "phenylbiguanide 8.89 μM, Experiment 1"}, "[16]": {"details": "phenylbiguanide 8.89 μM, Experiment 2"}, "[17]": {"details": "phenylbiguanide 11.67 μM, Experiment 1"}, "[18]": {"details": "phenylbiguanide 11.67 μM, Experiment 2"}, "[19]": {"details": "phenylbiguanide 12.86 μM, Experiment 1"}, "[20]": {"details": "phenylbiguanide 12.86 μM, Experiment 2"}, "[21]": {"details": "phenylbiguanide 14.74 μM, Experiment 1"}, "[22]": {"details": "phenylbiguanide 14.74 μM, Experiment 2"}, "[23]": {"details": "phenylbiguanide 10. μM, Experiment 1"}, "[24]": {"details": "phenylbiguanide 10. μM, Experiment 2"}}, "data": [{"smiles": "N=C(N)NC(=N)Nc1ccccc1", "note": "[1-phenylbiguanide]", "values": [{"measurement": "Icap current response", "setting": "[1]; 1-phenylbiguanide 7.5 μM", "value": 96.5, "unit": "nA"}, {"measurement": "Ifarad current response", "setting": "[1]; 1-phenylbiguanide 7.5 μM", "value": 20.9, "unit": "nA"}, {"measurement": "Icap current response", "setting": "[1]; 1-phenylbiguanide 14.74 μM", "value": 96.4, "unit": "nA"}, {"measurement": "Ifarad current response", "setting": "[1]; 1-phenylbiguanide 14.74 μM", "value": 20.7, "unit": "nA"}, {"measurement": "Icap current response", "setting": "[2]; [3]", "value": 96.3, "unit": "nA"}, {"measurement": "Ifarad current response", "setting": "[2]; [3]", "value": 23.6, "unit": "nA"}, {"measurement": "Icap current response", "setting": "[2]; [4]", "value": 97.3, "unit": "nA"}, {"measurement": "Ifarad current response", "setting": "[2]; [4]", "value": 22.7, "unit": "nA"}, {"measurement": "Icap current response", "setting": "[2]; [5]", "value": 97.1, "unit": "nA"}, {"measurement": "Ifarad current response", "setting": "[2]; [5]", "value": 26.1, "unit": "nA"}, {"measurement": "Icap current response", "setting": "[2]; [6]", "value": 98.0, "unit": "nA"}, {"measurement": "Ifarad current response", "setting": "[2]; [6]", "value": 25.0, "unit": "nA"}, {"measurement": "Icap current response", "setting": "[2]; [7]", "value": 97.6, "unit": "nA"}, {"measurement": "Ifarad current response", "setting": "[2]; [7]", "value": 27.7, "unit": "nA"}, {"measurement": "Icap current response", "setting": "[2]; [8]", "value": 98.5, "unit": "nA"}, {"measurement": "Ifarad current response", "setting": "[2]; [8]", "value": 26.6, "unit": "nA"}, {"measurement": "Icap current response", "setting": "[2]; [9]", "value": 98, "unit": "nA"}, {"measurement": "Ifarad current response", "setting": "[2]; [9]", "value": 28.9, "unit": "nA"}, {"measurement": "Icap current response", "setting": "[2]; [10]", "value": 99.2, "unit": "nA"}, {"measurement": "Ifarad current response", "setting": "[2]; [10]", "value": 28.3, "unit": "nA"}, {"measurement": "Icap current response", "setting": "[2]; [11]", "value": 98.3, "unit": "nA"}, {"measurement": "Ifarad current response", "setting": "[2]; [11]", "value": 29.7, "unit": "nA"}, {"measurement": "Icap current response", "setting": "[2]; [12]", "value": 99.4, "unit": "nA"}, {"measurement": "Ifarad current response", "setting": "[2]; [12]", "value": 29.0, "unit": "nA"}, {"measurement": "Icap current response", "setting": "[2]; [13]", "value": 98.4, "unit": "nA"}, {"measurement": "Ifarad current response", "setting": "[2]; [13]", "value": 30.1, "unit": "nA"}, {"measurement": "Icap current response", "setting": "[2]; [14]", "value": 99.5, "unit": "nA"}, {"measurement": "Ifarad current response", "setting": "[2]; [14]", "value": 29.5, "unit": "nA"}, {"measurement": "Icap current response", "setting": "[2]; [15]", "value": 98.5, "unit": "nA"}, {"measurement": "Ifarad current response", "setting": "[2]; [15]", "value": 30.6, "unit": "nA"}, {"measurement": "Icap current response", "setting": "[2]; [16]", "value": 99.6, "unit": "nA"}, {"measurement": "Ifarad current response", "setting": "[2]; [16]", "value": 29.8, "unit": "nA"}, {"measurement": "Icap current response", "setting": "[2]; [17]", "value": 98.6, "unit": "nA"}, {"measurement": "Ifarad current response", "setting": "[2]; [17]", "value": 31.1, "unit": "nA"}, {"measurement": "Icap current response", "setting": "[2]; [18]", "value": 99.6, "unit": "nA"}, {"measurement": "Ifarad current response", "setting": "[2]; [18]", "value": 30.3, "unit": "nA"}, {"measurement": "Icap current response", "setting": "[2]; [19]", "value": 98.6, "unit": "nA"}, {"measurement": "Ifarad current response", "setting": "[2]; [19]", "value": 31.2, "unit": "nA"}, {"measurement": "Icap current response", "setting": "[2]; [20]", "value": 99.6, "unit": "nA"}, {"measurement": "Ifarad current response", "setting": "[2]; [20]", "value": 30.4, "unit": "nA"}, {"measurement": "Icap current response", "setting": "[2]; [21]", "value": 98.6, "unit": "nA"}, {"measurement": "Ifarad current response", "setting": "[2]; [21]", "value": 31.2, "unit": "nA"}, {"measurement": "Icap current response", "setting": "[2]; [22]", "value": 99.6, "unit": "nA"}, {"measurement": "Ifarad current response", "setting": "[2]; [22]", "value": 30.4, "unit": "nA"}, {"measurement": "Icap current response", "setting": "[2]; [23]", "value": 98.6, "unit": "nA"}, {"measurement": "Ifarad current response", "setting": "[2]; [23]", "value": 30.8, "unit": "nA"}, {"measurement": "Icap current response", "setting": "[2]; [24]", "value": 99.6, "unit": "nA"}, {"measurement": "Ifarad current response", "setting": "[2]; [24]", "value": 30.0, "unit": "nA"}]}, {"smiles": "NCCc1c[nH]c2ccc(O)cc12", "note": "[5-hydroxytryptamine]", "values": [{"measurement": "alterations of the electrical properties of the lipid layer without receptor", "setting": "[1]", "value": "no alterations of the electrical properties of the pure lipid layer were observed"}]}, {"smiles": "CN1C2CCC1CC(OC(=O)c1c[nH]c3ccccc13)C2", "note": "(stereo not drawn) [ICS 205-930]", "values": [{"measurement": "alterations of the electrical properties of the lipid layer without receptor", "setting": "[1]", "value": "No alterations of the electrical properties of the lipid bilayer"}, {"measurement": "5-HT concentration necessary for binding to the receptor, times higher than in the absence of the antagonist", "setting": "[2]; in the presence of 10 nM ICS 205-930", "value": "about 40 times"}]}]}
